Here are results for 8 molecules from patent US10941157B2, “Pesticidal compositions and uses thereof” (Gilead Apollo, LLC, priority 2015, dated 2021).

What all share (format): cell-based
For one experiment, the system named is Botrtyis cinerea (Bc). As to the kind of experiment: In vitro pathogen growth inhibition assay, Bc. The following applies: 48 h, ≥90% inhibition; 48 hours vs 2% DMSO control; read-out: Compound Concentration (ppm) sufficient for ≥90% inhibition of growth, Bc. The protocol:
(§1) A growth inhibition assay was conducted to determine the ability of compounds to control the growth of fungal pathogens, such as Botrtyis cinerea (Bc), Collectotrichum graminicola (Cg), Diplodia maydis (Dm), Fusarium moniliforme (Fm), Fusarium virguliforme (Fv), Phytophthora capsici (Pc), Rhizoctonia solani (Rs), and Septoria tritici (St). The compounds listed in Table 1 were each dissolved in DMSO at 2.5 mg/ml to produce compound stock solutions (“stocks”). […] Negative controls on each plate included 2% DMSO, water, and a blank (media+2% DMSO). Fungal spores were isolated from previously sub-cultured plates of Botrtyis cinerea (Bc), Collectotrichum graminicola (Cg), Diplodia maydis (Dm), Fusarium moniliforme (Fm), Fusarium virguliforme (Fv), Phytophthora capsici (Pc), and Septoria tritici (St). The isolated spores were diluted to individual concentrations with a 17% V8 liquid media. For Rhizoctonia solani (Rs), 1.5 mm mycelial plugs were used in place of spores and ¼ Potato Dextrose Broth (PDB) was used for dilution. The spore concentrations and plug sizes were based on growth curves generated at 48 hours for each pathogen. In a second 96-well plate, the spores or mycelial plugs, media, diluted compound solutions, and controls were combined. Once the compound was added, a true final concentration of compound in each well was measured by an OD600 reading, which adjusted for any compound precipitation that might have occurred in the well. Plate readings were repeated at both 24 and 48 hours. The blank negative control was used as a background subtraction. Additional visual ratings were performed at both 24 and 48 hours for checking on precipitation and confirming efficacy. […] Both tables list the concentration of each compound that was sufficient to ≥90% inhibition of growth for each of the fungal pathogens listed above. In addition, some of compounds were tested in a yeast growth inhibition assay for Saccharomyces cerevisiae (Sc). Table 2 lists the concentration of the tested compound that was sufficient to ≥75% inhibition of Saccharomyces cerevisiae (Sc).

The subject of another experiment is Diplodia maydis (Dm). As to the kind of experiment: In vitro pathogen growth inhibition assay, Dm. As to conditions: Stenocarpella maydis, 48 h, ≥90% inhibition; 48 hours vs 2% DMSO control; read-out: Compound Concentration (ppm) sufficient for ≥90% inhibition of growth, Dm. As for the experimental part: as §1
A further experiment has as its system Rhizoctonia solani (Rs). The experiment can be described thus: In vitro pathogen growth inhibition assay, Rs (mycelial plugs). The following applies: Rhizoctonia solani, 48 h, ≥90% inhibition; mycelial plugs; 48 hours vs 2% DMSO control; read-out: Compound Concentration (ppm) sufficient for ≥90% inhibition of growth, Rs. The protocol:
as §1

Experiment [1] relates to Fusarium virguliforme (Fv). The experiment can be described thus: In vitro pathogen growth inhibition assay, Fv. The following applies: ≥90% inhibition, 48 hours vs 2% DMSO control, read-out: Compound Concentration (ppm) sufficient for ≥90% inhibition of growth, Fv. The protocol:
as §1

The subject of another experiment is Septoria tritici (St). As to the kind of experiment: In vitro pathogen growth inhibition assay, St. The following applies: Zymoseptoria tritici, 48 h, ≥90% inhibition; 48 hours vs 2% DMSO control; read-out: Compound Concentration (ppm) sufficient for ≥90% inhibition of growth, St. As for the experimental part:
as §1

Experiment [2] has as its system Collectotrichum graminicola (Cg). As to the kind of experiment: In vitro pathogen growth inhibition assay, Cg. The following applies: 48 h, ≥90% inhibition; 48 hours vs 2% DMSO control; read-out: Compound Concentration (ppm) sufficient for ≥90% inhibition of growth, Cg. The protocol: as §1
The subject of experiment [3] is Fusarium moniliforme (Fm). The experiment can be described thus: In vitro pathogen growth inhibition assay, Fm. The following applies: Fusarium verticillioides; ≥90% inhibition; 48 hours vs 2% DMSO control; read-out: Compound Concentration (ppm) sufficient for ≥90% inhibition of growth, Fm. As for the experimental part:
as §1

The subject of experiment [4] is Phytophthora capsici (Pc). As to the kind of experiment: In vitro pathogen growth inhibition assay, Pc. As to conditions: 48 h, ≥90% inhibition, 48 hours vs 2% DMSO control, read-out: Compound Concentration (ppm) sufficient for ≥90% inhibition of growth, Pc. The protocol: as §1

In brackets after ≈: the same amount, converted by molar mass.

Take `COc1ccc(F)cc1[C@H](Cn1c(=O)n(C(C)(C)C(=O)N2CCCCC2)c(=O)c2c(C)c(-n3cccn3)sc21)OC(C)C` [Compound I-002]: the IC90 was 0.4 µg/mL (≈ 0.654 µM) in the experiment with Botrtyis cinerea (Bc); 0.4 µg/mL (≈ 0.654 µM) in the experiment with Diplodia maydis (Dm); 0.4 µg/mL (≈ 0.654 µM) in the experiment on Rhizoctonia solani (Rs); 0.4 µg/mL (≈ 0.654 µM) in experiment [1]; over 10 µg/mL in the experiment with Septoria tritici (St); 2 µg/mL (≈ 3.27 µM) in experiment [2]. Besides, the IC90 in experiment [3] is 0.08 µg/mL (≈ 0.131 µM); in experiment [4], over 50 µg/mL.

As to `COc1ccc(F)cc1[C@H](Cn1c(=O)n(C(C)(C)C(=O)NC(C)C)c(=O)c2c(C)c(-c3ncco3)sc21)OC1CCOCC1` [Compound I-015], the IC90 in the experiment with Botrtyis cinerea (Bc) was 0.4 µg/mL (≈ 0.636 µM); in the experiment on Diplodia maydis (Dm), at least 0.4 µg/mL; in the experiment with Rhizoctonia solani (Rs) it was 10 µg/mL (≈ 15.9 µM); in experiment [1], 0.4 µg/mL (≈ 0.636 µM); in the experiment with Septoria tritici (St), over 10 µg/mL; in experiment [2], 2 µg/mL (≈ 3.18 µM). The results for the IC90 in experiment [3] and in experiment [4] were 0.08 µg/mL (≈ 0.127 µM) and over 50 µg/mL, respectively.

As to `COc1ccc(F)cc1[C@H](Cn1c(=O)n(C(C)(C)C(=O)N2CCCCC2)c(=O)c2c(C)c(-c3ncco3)sc21)OC(C)C` [Compound I-016], the IC90 with Botrtyis cinerea (Bc) was 0.4 µg/mL (≈ 0.653 µM); in the experiment with Diplodia maydis (Dm) it was 0.4 µg/mL (≈ 0.653 µM); in the experiment with Rhizoctonia solani (Rs) it was 0.4 µg/mL (≈ 0.653 µM); in experiment [1], 0.4 µg/mL (≈ 0.653 µM); in the experiment with Septoria tritici (St), over 10 µg/mL; in experiment [2], 2 µg/mL (≈ 3.26 µM). Moreover, the IC90 in experiment [3] is 0.08 µg/mL (≈ 0.131 µM); in experiment [4], over 50 µg/mL.

As for `COc1ccc(F)cc1[C@H](Cn1c(=O)n(C(C)(C)C(=O)N2CCCC2)c(=O)c2c(C)c(-c3ncco3)sc21)OC(C)C` [Compound I-017], the IC90 with Botrtyis cinerea (Bc) is 0.4 µg/mL (≈ 0.668 µM); with Diplodia maydis (Dm) it was at least 0.08 µg/mL; with Rhizoctonia solani (Rs), 0.4 µg/mL (≈ 0.668 µM); in experiment [1], 0.4 µg/mL (≈ 0.668 µM); in the experiment on Septoria tritici (St), over 10 µg/mL; in experiment [2], 0.08 µg/mL (≈ 0.134 µM). The IC90 was 0.08 µg/mL (≈ 0.134 µM) in experiment [3] and over 50 µg/mL in experiment [4].

As to `COc1ccc(F)cc1[C@H](Cn1c(=O)n(C(C)(C)C(=O)NC(C)C)c(=O)c2c(C)c(-c3ncco3)sc21)OC(C)C` [Compound I-018], the IC90 was 0.4 µg/mL (≈ 0.682 µM) in the experiment with Botrtyis cinerea (Bc); 0.4 µg/mL (≈ 0.682 µM) in the experiment on Diplodia maydis (Dm); 0.08 µg/mL (≈ 0.136 µM) in the experiment with Rhizoctonia solani (Rs); 0.4 µg/mL (≈ 0.682 µM) in experiment [1]; over 10 µg/mL with Septoria tritici (St); 0.4 µg/mL (≈ 0.682 µM) in experiment [2]. The IC90 is 0.08 µg/mL (≈ 0.136 µM) in experiment [3] and over 50 µg/mL in experiment [4].

Turning to `CCNC(=O)C(C)(C)n1c(=O)c2c(C)c(-n3nccn3)sc2n(C[C@H](OC(C)C)c2cc(F)ccc2OC)c1=O` [Compound I-019], the IC90 in the experiment on Botrtyis cinerea (Bc) is at least 0.4 µg/mL; in the experiment with Diplodia maydis (Dm), at least 0.4 µg/mL; with Rhizoctonia solani (Rs), 0.08 µg/mL (≈ 0.14 µM); in experiment [1], 0.4 µg/mL (≈ 0.698 µM); in the experiment with Septoria tritici (St), over 10 µg/mL; in experiment [2] it was at least 0.4 µg/mL. Further, the IC90 in experiment [3] was 0.08 µg/mL (≈ 0.14 µM); in experiment [4], over 50 µg/mL.

As for `COc1ccc(F)cc1[C@H](Cn1c(=O)n(C(C)(C)C(=O)N2CCOCC2)c(=O)c2c(C)c(-n3nccn3)sc21)OC(C)C` [Compound I-021], the IC90 is 0.4 µg/mL (≈ 0.651 µM) in the experiment on Botrtyis cinerea (Bc); 2 µg/mL (≈ 3.25 µM) with Diplodia maydis (Dm); 0.4 µg/mL (≈ 0.651 µM) in the experiment with Rhizoctonia solani (Rs); 0.4 µg/mL (≈ 0.651 µM) in experiment [1]; over 10 µg/mL in the experiment with Septoria tritici (St); 2 µg/mL (≈ 3.25 µM) in experiment [2]. The IC90 is 0.08 µg/mL (≈ 0.13 µM) in experiment [3] and over 50 µg/mL in experiment [4].

For `COc1ccc(F)cc1[C@H](Cn1c(=O)n(C(C)(C)C(=O)N2CCCCC2)c(=O)c2c(C)c(-n3nccn3)sc21)OC(C)C` [Compound I-022], the IC90 in the experiment on Botrtyis cinerea (Bc) is 0.08 µg/mL (≈ 0.131 µM); in the experiment on Diplodia maydis (Dm) it was 0.08 µg/mL (≈ 0.131 µM); in the experiment on Rhizoctonia solani (Rs), 0.08 µg/mL (≈ 0.131 µM); in experiment [1] it was at least 0.08 µg/mL; in the experiment on Septoria tritici (St) it was at least 2 µg/mL; in experiment [2] it was 0.08 µg/mL (≈ 0.131 µM). Moreover, the IC90 was 0.08 µg/mL (≈ 0.131 µM) in experiment [3] and over 50 µg/mL in experiment [4].
